These results are taken from paper PMC8119212 (JCI Insight, 2021).

“Also recorded” adds a separate entry of the source.

Data set [1] has as its system ACVR1^Q207D-transgenic mouse (CAG-Z-eGFP-caALK2-Tg). The data set is described as follows: ACVR1^Q207D-Tg mouse model of heterotopic ossification. The following applies: for mobility (passive range of motion): 6 mg/kg intraperitoneally twice daily, not shown. The source says: In these animals, activation of the ACVR1^Q207D transgene and associated GFP reporter is mediated by a single intramuscular injection of Adenovirus expressing Cre recombinase (Ad.Cre) in the left hindlimb on P7. This induces the expression of the human ACVR1^Q207D transgene, as well as muscle necrosis and inflammation, which together result in the formation of heterotopic bone lesions within 7–10 days following Ad.Cre injection ([16]). This model is believed to recapitulate aspects of clinical HO and FOP, in which muscle injury and inflammation potentiate the formation of heterotopic bone in soft tissues.
(D) Representative hindlimb scoring system. All range of motion scoring was performed by 2 separate operators who were blinded to the treatment condition of the animal.
Mice were maintained in accordance with IACUC guidelines under approved experimental protocols. Cre-inducible ACVR1^Q207D (CAG-Z-eGFP-caACVR1-Tg) transgenic mice were a gift from Yuji Michina (University of Michigan, Ann Arbor, Michigan, USA) as previously described ([31]). Acvr1^[R206H]FlEx/+ mice were generated as previously described ([13]). Heterotopic bone formation in these mice was introduced via single retro-popliteal injection of adenoviral Cre-recombinase at 1 × 10^8 PFU at P7. […] Bone formation as a function of a loss of passive range of motion, via dorsiflexion of the left ankle joint was assessed daily. Scores were assessed by 2 independent observers blinded to genotype and treatment. […] To monitor the progression of HO during the in vivo studies, x-ray radiographs were also imaged at various time points. Mice were anesthetized using ketamine at 100 mg/kg and imaged nonterminally in the prone position with tibial lateralization and hip abduction, allowing for reproducible positioning. Radiographs were obtained using 30-second scans and 50 kV exposures (MS FX In Vivo Pro: Carestream Imaging). […] After reconstruction, regions of interest were chosen and exported into DICOM format, and analyzed by Osirix analysis software. Fixed soft tissues and bone were stained with alizarin red and Alcian blue as previously described ([62]).

Data set [2] addresses ALK2 (WT) GS and kinase domain (Homo sapiens, UniProt Q04771). In words: DSF thermal shift, wild-type ALK2. The format is binding.
For data set [3], the system named is BMP7-induced phosphorylation of SMAD1/5. In words: Western blot, BMP7-induced phospho-SMAD1/5 in C2C12 cells. To be noted: 100 nM saracatinib. In general terms: Immunoblotting shows a protein as a band on a membrane.
A further data set deals with zebrafish embryos. In words: Zebrafish embryo dorsalization. The format is in vivo. To be noted: incubation starting at 0.5 hours after fertilization. As to the method: Dorsoventral axis specification during embryogenesis is regulated by the activity of BMP signaling agonists and antagonists ([30]).
Zebrafish embryos were treated with varying inhibitor concentrations from less than or equal to 0.5 hours after fertilization. Inhibitor stocks (20 mM) were diluted in fish water from DMSO. Embryos were scored according to Mullins et al. ([61]).

In another data set the target is RIPK2 (Homo sapiens, UniProt O43353). The data set is described as follows: Caliper kinase profiling (Nanosyn), RIPK2. Type of data set: biochemical.
Data set [4] addresses T1, recombinant ALK1 kinase domain (Homo sapiens, UniProt P37023).
T1 construct: purified recombinant ALK1-6 kinase domains; purchased Life Technology PV4883
The data set is described as follows: LANCE Ultra TR-FRET kinase assay, ALK1. The format is biochemical. The following applies: 10 nM kinase, 50 μM peptide substrate, 10 μM ATP. From the text: (§1) Data shown are plotted as mean ± SD. (n = 3 independent replicates). […] (n = 3 replicates). […] Data shown are plotted as mean ± SD. (n ≥ 3 independent replicates).
(§2) Recombinant ALK1 was obtained from Life Technology (catalog PV4883). Recombinant ALK2 to ALK6 were purchased from Carna Bioscience (catalog 09-134). A LANCE Ultra TR-FRET kinase assay was used for measurements of enzyme activities that included a ULight-labeled (Thr-1342) peptide substrate (catalog TRF0130-M, PerkinElmer) and a Europium-labeled anti-phospho peptide antibody (catalog TRF0218-M). The kinase reaction was carried out in a buffer containing 10 mM MgCl2, 3 mM MnCl2, 0.005% Tween-20, 2 mM DTT, and 50 mM HEPES, pH 7.0. The details of the enzyme assays will be reported in a separate paper (our unpublished observations). Briefly, 2.5 μL/well kinase protein (10 nM final) was dispensed to a white solid 1536-well plate followed by addition of 23 nL/well compound diluted in DMSO using a Pin-tool station (Wako-Kalypsis). After a 10-minute incubation at room temperature, 2.5 μL/well substrate solution (50 μM peptide and 10 μM ATP, final) was added, and the assay plate was incubated for 60 minutes at room temperature. […] The signals of time-resolved fluorescence resonance energy transfer (TR-FRET) assay were measured in an Envision plate reader (PerkinElmer) with a TR-FRET mode (Ex = 320, Em1 = 665, and Em2 = 615 nm).

The target of data set [5] is T2, recombinant ALK6 kinase domain (Homo sapiens, UniProt O00238).
T2 construct: purified recombinant ALK1-6 kinase domains; purchased Carna Bioscience 09-134
The data set is described as follows: LANCE Ultra TR-FRET kinase assay, ALK6. Type of data set: biochemical. The following applies: 10 nM kinase, 50 μM peptide substrate, 10 μM ATP.
Description: as §1, §2
In general terms: TR-FRET usually uses a lanthanide donor and a delayed reading to cut background.

In another data set the target is ARG (ABL2) (Homo sapiens, UniProt P42684). In words: Caliper kinase profiling (Nanosyn), ARG. The format is biochemical.
Another data set has as its target HCK (Homo sapiens, UniProt P08631). The data set is described as follows: Caliper kinase profiling (Nanosyn), HCK. Type of data set: biochemical.
A further data set concerns C2C12 cells. The following applies: mouse. As to the method: (§3) Inhibition of the BMP receptors caALK1, caALK2, and caALK3 was assessed via the activity of a BMP-response element LUC reporter (BRE-Luc) stably expressed in the C2C12 cell line, whereas the activin (caALK4) and TGF-β (caALK5) receptors were profiled via a CAGA-Luc reporter construct stably expressed in HEK293 cells (Figure 2B). […] Cell viability was assayed with an MTT (3-[4,5-dimethylthiazol-2-yl]-2,5-diphenyl tetrazolium bromide) colorimetric assay (Promega) per the manufacturer’s instructions.
(§4) lines was determined using the MTT cell viability assay . Data were plotted as mean + S.E.M. and
(§5) (1 picture or pasted object on this page, not shown here)

A further data set relates to HEK293 cells. To be noted: human. As to the method: as §3, §4, §5
The conditions of data set [6]: cited from earlier work.
Data set [7] deals with T3, recombinant ALK5 kinase domain (Homo sapiens, UniProt P36897).
T3 construct: purified recombinant ALK1-6 kinase domains; purchased Carna Bioscience 09-134
In words: LANCE Ultra TR-FRET kinase assay, ALK5. Type of data set: biochemical. To be noted: 10 nM kinase, 50 μM peptide substrate, 10 μM ATP.

For the next data set, the system named is BMP7 signaling. In words: cells. To be noted: Homo sapiens, MDA-MB-231. As for the experimental part: (§6) Reactions contained 10 nM kinase, 50 μM peptide substrate, and 10 μM ATP. Data shown are plotted as mean ± SD. (n = 3 independent replicates). […] Data shown are representative of more than 3 independent experiments, with data plotted as mean ±SEM. (n = 3 replicates). […] Data shown are plotted as mean ± SD. (n ≥ 3 independent replicates).
(§7) For subsequent investigations of ligand-dependent receptor signaling we used MDA-MB-231 cells stably expressing either the BRE-Luc or CAGA-Luc construct.
(§8) MDA-MB-231 cells stably expressing BRE-Luc or CAGA-Luc were generously provided by Caroline Hill (Francis Crick Institute). […] LUC activity was measured using the Promega Dual LUC Reporter Assay system and percentage activity determined compared with cells treated with growth factor and no inhibitor. Growth factors (Peprotech) were used at the following concentrations: 500 ng/mL BMP2, 10 ng/mL BMP4, 500 ng/mL BMP6, 500 ng/mL BMP7, 4 ng/mL TGF-β, and 200 ng/mL activin A. Experiments were repeated at least 3 times and plotted as mean ± SD.

For the next data set, the system named is BMP6 signaling. In words: cells. The following applies: Homo sapiens, MDA-MB-231. As to the method: as §6, §7, §8
In another data set the test system is activin A signaling. In words: cells. To be noted: Homo sapiens, MDA-MB-231. As for the experimental part: as §6, §7, §8
In another data set the test system is BMP4 signaling. In words: cells. To be noted: Homo sapiens, MDA-MB-231. As for the experimental part: as §6, §7, §8
The test system of a further data set is BMP2 signaling. In words: cells. The following applies: Homo sapiens, MDA-MB-231. As to the method: as §6, §7, §8
The subject of data set [8] is TGF-β–dependent phosphorylation of SMAD2. The following applies: C2C12 cells; Western blot.
The target in data set [9] is T4, recombinant ALK4 kinase domain (Homo sapiens, UniProt P36896).
T4 construct: purified recombinant ALK1-6 kinase domains; purchased Carna Bioscience 09-134
In words: LANCE Ultra TR-FRET kinase assay, ALK4. Type of data set: biochemical. The following applies: 10 nM kinase, 50 μM peptide substrate, 10 μM ATP.

The next data set deals with TNIK (Homo sapiens, UniProt Q9UKE5). The data set is described as follows: Caliper kinase profiling (Nanosyn), TNIK. The format is biochemical.
Another data set relates to TGF-β signaling. In words: cells. The following applies: Homo sapiens, MDA-MB-231.
Data set [10] addresses T5, recombinant ALK3 kinase domain (Homo sapiens, UniProt P36894).
T5 construct: purified recombinant ALK1-6 kinase domains; purchased Carna Bioscience 09-134
In words: LANCE Ultra TR-FRET kinase assay, ALK3. Type of data set: biochemical. To be noted: 10 nM kinase, 50 μM peptide substrate, 10 μM ATP.
Description: as §1, §2

Another data set has as its target LYN (Homo sapiens, UniProt P07948). In words: Caliper kinase profiling (Nanosyn), LYN. Type of data set: biochemical.

ALK2 (WT) GS and kinase domain, sequence (Q04771 172-499): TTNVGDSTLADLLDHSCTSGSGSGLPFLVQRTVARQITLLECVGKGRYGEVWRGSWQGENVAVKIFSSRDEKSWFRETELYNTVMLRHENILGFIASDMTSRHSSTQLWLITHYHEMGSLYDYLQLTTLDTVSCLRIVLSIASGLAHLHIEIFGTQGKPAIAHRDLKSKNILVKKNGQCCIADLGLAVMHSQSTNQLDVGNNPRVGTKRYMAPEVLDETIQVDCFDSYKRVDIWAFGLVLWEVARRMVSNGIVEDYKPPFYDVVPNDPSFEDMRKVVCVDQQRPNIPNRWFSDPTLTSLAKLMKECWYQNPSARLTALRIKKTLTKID
T1 sequence (P37023 202-492 limits assumed): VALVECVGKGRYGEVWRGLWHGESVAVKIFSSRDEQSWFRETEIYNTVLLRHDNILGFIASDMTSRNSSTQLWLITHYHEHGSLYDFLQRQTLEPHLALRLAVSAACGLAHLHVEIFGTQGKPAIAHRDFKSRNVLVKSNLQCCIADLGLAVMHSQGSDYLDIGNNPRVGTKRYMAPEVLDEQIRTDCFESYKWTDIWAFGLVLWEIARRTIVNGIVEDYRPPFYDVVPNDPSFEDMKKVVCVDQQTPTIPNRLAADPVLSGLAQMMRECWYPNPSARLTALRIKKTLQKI
LYN, sequence (P07948 whole entry): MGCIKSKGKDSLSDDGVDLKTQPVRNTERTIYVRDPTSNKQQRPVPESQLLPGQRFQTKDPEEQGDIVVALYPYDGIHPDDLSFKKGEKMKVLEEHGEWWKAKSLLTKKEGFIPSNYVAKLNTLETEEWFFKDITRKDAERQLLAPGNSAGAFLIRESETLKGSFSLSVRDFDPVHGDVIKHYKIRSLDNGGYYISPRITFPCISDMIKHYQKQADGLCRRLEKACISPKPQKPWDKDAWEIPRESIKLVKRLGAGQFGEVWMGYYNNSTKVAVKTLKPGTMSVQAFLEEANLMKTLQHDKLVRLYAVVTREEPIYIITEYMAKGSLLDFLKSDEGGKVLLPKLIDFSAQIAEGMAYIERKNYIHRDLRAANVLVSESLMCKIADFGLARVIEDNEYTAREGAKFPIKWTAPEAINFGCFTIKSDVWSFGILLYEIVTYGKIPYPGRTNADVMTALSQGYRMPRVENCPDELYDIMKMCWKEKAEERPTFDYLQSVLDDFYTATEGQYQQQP
T5 sequence (P36894 234-525 limits assumed): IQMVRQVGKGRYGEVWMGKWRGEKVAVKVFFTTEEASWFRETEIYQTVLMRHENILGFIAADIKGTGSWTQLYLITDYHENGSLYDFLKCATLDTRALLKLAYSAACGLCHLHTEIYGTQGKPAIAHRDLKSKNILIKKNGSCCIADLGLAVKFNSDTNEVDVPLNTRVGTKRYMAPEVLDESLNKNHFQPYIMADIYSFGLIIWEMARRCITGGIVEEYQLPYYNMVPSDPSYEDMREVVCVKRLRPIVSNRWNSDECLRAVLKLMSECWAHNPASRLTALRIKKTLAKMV
HCK, sequence (P08631 whole entry): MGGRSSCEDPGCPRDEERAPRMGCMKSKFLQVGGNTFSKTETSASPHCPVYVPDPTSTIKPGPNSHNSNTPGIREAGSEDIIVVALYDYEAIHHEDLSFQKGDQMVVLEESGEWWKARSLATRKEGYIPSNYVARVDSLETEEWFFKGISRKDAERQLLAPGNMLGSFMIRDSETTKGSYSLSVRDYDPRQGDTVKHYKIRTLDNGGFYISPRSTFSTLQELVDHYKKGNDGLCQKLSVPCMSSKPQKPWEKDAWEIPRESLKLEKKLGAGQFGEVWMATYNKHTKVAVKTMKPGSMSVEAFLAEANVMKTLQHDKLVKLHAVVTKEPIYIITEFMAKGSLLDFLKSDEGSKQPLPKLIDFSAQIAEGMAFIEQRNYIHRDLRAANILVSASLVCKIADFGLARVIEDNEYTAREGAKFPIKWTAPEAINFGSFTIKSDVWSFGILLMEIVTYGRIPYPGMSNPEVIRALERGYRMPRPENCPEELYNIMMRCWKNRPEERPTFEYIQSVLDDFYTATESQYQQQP
TNIK, sequence (Q9UKE5 whole entry): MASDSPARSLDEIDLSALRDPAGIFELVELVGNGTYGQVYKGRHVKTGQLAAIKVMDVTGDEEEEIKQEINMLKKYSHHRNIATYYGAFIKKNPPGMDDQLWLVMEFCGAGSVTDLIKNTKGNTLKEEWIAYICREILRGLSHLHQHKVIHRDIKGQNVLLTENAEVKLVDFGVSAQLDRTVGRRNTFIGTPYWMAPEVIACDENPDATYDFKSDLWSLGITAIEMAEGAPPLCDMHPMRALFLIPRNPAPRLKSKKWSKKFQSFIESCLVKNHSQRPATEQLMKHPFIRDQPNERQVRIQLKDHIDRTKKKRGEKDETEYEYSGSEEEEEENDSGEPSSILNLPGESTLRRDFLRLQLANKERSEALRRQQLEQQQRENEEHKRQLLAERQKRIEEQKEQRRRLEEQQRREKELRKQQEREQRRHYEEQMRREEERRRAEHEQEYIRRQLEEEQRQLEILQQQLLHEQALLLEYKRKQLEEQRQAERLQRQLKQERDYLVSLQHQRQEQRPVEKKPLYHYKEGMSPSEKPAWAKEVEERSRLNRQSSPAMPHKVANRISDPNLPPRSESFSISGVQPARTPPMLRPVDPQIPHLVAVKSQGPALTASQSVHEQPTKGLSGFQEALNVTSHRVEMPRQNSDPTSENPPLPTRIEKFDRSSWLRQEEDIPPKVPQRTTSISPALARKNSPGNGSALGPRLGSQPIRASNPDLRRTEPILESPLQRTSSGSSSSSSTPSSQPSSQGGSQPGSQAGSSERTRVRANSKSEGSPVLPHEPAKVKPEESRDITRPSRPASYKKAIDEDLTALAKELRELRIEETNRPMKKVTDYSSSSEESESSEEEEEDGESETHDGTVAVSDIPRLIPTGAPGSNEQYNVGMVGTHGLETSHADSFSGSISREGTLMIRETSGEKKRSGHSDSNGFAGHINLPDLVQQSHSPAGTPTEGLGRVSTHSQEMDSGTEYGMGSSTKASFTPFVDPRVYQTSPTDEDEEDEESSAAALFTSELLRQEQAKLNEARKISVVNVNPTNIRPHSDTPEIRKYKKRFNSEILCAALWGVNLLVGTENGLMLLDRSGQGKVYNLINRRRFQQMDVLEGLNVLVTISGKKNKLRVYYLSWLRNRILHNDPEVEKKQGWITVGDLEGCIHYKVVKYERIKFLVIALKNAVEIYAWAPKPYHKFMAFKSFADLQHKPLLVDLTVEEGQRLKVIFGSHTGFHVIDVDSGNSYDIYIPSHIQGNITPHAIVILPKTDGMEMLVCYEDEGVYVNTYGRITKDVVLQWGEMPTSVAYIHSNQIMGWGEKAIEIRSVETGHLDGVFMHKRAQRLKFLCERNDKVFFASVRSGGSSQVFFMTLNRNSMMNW
T4 sequence (P36896 207-497 limits assumed): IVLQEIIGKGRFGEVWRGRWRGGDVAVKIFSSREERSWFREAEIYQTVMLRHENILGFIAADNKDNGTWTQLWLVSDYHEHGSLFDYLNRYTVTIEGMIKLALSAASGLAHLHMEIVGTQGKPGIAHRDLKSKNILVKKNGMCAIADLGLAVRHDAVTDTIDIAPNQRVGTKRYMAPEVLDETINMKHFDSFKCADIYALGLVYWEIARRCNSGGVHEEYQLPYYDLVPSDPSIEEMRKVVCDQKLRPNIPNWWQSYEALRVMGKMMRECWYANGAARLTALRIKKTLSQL
T3 sequence (P36897 205-495 limits assumed): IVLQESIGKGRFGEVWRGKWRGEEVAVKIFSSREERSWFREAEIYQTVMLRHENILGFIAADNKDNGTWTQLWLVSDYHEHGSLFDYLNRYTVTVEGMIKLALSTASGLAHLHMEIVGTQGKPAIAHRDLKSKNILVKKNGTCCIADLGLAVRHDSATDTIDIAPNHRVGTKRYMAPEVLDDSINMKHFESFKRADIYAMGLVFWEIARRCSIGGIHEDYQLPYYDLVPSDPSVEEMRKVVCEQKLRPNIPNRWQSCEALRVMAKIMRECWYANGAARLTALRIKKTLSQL
T2 sequence (O00238 204-494 limits assumed): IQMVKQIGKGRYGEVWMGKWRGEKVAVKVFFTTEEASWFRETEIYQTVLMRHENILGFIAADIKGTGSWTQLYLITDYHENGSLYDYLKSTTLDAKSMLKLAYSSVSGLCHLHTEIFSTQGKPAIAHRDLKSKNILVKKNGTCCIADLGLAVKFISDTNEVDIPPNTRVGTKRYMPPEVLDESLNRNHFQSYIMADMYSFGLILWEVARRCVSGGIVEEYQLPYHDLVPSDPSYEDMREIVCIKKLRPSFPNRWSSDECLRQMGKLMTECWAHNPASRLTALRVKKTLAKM
RIPK2, sequence (O43353 whole entry, the tested form may be a part): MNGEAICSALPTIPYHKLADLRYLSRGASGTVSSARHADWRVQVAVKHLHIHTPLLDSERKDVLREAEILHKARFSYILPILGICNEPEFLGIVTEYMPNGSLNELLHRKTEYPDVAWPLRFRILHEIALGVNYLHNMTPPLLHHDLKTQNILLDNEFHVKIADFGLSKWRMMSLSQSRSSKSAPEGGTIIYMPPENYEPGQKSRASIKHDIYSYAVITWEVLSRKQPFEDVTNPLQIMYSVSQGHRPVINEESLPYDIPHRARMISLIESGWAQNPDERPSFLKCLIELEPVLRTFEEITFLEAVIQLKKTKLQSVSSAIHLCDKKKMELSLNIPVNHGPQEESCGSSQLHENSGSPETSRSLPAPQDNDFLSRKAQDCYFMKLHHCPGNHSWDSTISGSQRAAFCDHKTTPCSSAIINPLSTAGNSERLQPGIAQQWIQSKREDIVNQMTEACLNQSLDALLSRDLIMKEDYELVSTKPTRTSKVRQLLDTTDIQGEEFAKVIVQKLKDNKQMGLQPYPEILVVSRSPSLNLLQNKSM

Take `c1cc(-c2cnn3cc(-c4ccc(N5CCNCC5)cc4)cnc23)c2cccnc2c1` [LDN-212854]: the “weight loss relative to vehicle-treated animals” value in [1] (6 mg/kg i.p. twice daily) is given as 10%–25%. The “mobility (passive range of motion)” value in [1] is “almost entirely preserved”.

For `COc1cc(N2CCC(N3CCN(C)CC3)CC2)ccc1Nc1ncnc(Nc2ccccc2S(=O)(=O)C(C)C)n1` [ASP3026], in data set [2] (ALK2 WT, 2 μM protein, 12.5 μM compound), the “ΔTm (thermal shift)” value is 10.7 °C.

The term inhibition denotes the drop in the measured response relative to a control, in per cent. Low values mean a weak effect, high ones a strong effect. What is called IC50 is the concentration that gives 50% inhibition. With `CN1CCN(CCOc2cc(OC3CCOCC3)c3c(Nc4c(Cl)ccc5c4OCO5)ncnc3c2)CC1` [saracatinib], the “BMP7-induced phosphorylation of SMAD1/5” value in data set [3] was “completely inhibited”. In the data set with zebrafish embryos, the “cyclopia or mesoderm specification phenotypes” value is “no evidence of cyclopia or phenotypes suggesting inhibition of mesoderm specification”. Moreover, the dorsalization phenotype result in the data set on zebrafish embryos was “dorsalized phenotype that increased in severity in a dose-dependent manner”. Further, the inhibition at 0.1 µM at RIPK2, against ARG (ABL2), against HCK, against TNIK and against LYN was above 50% in each case. Further, the IC50 in data set [4] came to 19 nM; in data set [5], 6130 nM; in [7] it was 6890 nM; with BMP7 signaling, 5.5 nM; with BMP6 signaling it was 8.9 nM; with activin A signaling, 72 nM. Also, the IC50 amounted to 131 nM with BMP4 signaling; 61 nM in the data set with BMP2 signaling; 3900 nM in data set [9]; 305 nM with TGF-β signaling; 621 nM in data set [10]. Besides, the “concentration up to which well tolerated” value in the data set with C2C12 cells and in the data set with HEK293 cells was “approximately 40 μM” throughout. Further, the t1/2 entry in [6] was “approximately 40 hours”. Also, the primary side effect entry in data set [6] (doses up to 125 mg daily for 9–12 months, phase II) was “gastrointestinal discomfort”. The “daily dose up to which safe” value in data set [6] (healthy volunteers) is at most 250 mg. Besides, the “adverse effects associated with higher doses” value in data set [6] (previous oncology trials, higher doses) is “neutropenia and thrombocytopenia”. Also, in [8], the “inhibitor concentration at which TGF-β–dependent phosphorylation of SMAD2 was blocked” value worked out at 5 µM.

On to `COc1cc2c(Nc3ccc(Br)cc3F)ncnc2cc1OCC1CCN(C)CC1` [vandetanib], for which the “binding to ALK2 (in words)” value in [2] (Supplemental Figure 1C) is listed as “does not show any notable binding to ALK2”. Also, the “HO formation / range of motion” value in data set [1] (25 mg/kg i.p. twice daily for 28 days) is recorded as “no evidence of improvement in radiographic HO or range-of motion; also recorded: did not block HO formation”.

In the case of `c1ccc2c(-c3cnn4cc(-c5ccc(N6CCNCC6)cc5)cnc34)ccnc2c1` [LDN-193189], the “mobility (passive range of motion)” value in data set [1] is listed as “almost entirely preserved”.
